Data from EP0694535A1, “Non-peptidyl tachykinin receptor antagonists” (ELI LILLY AND COMPANY, priority 1994, dated 1996).
Structures can show the parent of a compound that is named as a salt.

Biological target: T1, NK-1 receptor (Homo sapiens, UniProt P25103)
T1 construct: an aliquot of IM9 cells; endogenous in cells; host or cells: IM9 cells (whole cells)
Test: NK-1 Receptor Binding Assay (competition with labeled substance P on IM9 cells)
Conditions: for inhibition at 20 µM / inhibition at 10 µM: inhibition of substance P binding to the NK-1 receptor, read-out: Percent Inhibition; for IC50: concentration which inhibits fifty percent of the binding of substance P, 20 pM labeled substance P, 45 minutes at 4°C
Method: Radioreceptor binding assays were performed using a derivative of a previously published protocol. D.G. Payan, et al., Journal of Immunology, 133:3260-3265 (1984). In this assay an aliquot of IM9 cells (1 x 10⁶ cells/tube in […] medium supplemented with 10% fetal calf serum) was incubated with 20 pM […] substance P in the presence of increasing competitor concentrations for 45 minutes at 4°C.
The IM9 cell line is a well-characterized cell line which is readily available to the public. See. e.g., Annals of the New York Academy of Science, 190: 221-234 (1972); Nature (London), 251:443-444 (1974); Proceedings of the National Academy of Sciences (USA), 71:84-88 (1974). These cells were routinely cultured in RPMI 1640 supplemented with 50 µg/ml gentamicin sulfate and 10% fetal calf serum.
The reaction was terminated by filtration through a glass fiber filter harvesting system using filters previously soaked for 20 minutes in 0.1% polyethylenimine. Specific binding of labeled substance P was determined in the presence of 20 nM unlabeled ligand.
Column 1 provides the example number of the test antagonist compound. The next columns detail the substitution patterns of the test compound.

T1 sequence (P25103 whole entry): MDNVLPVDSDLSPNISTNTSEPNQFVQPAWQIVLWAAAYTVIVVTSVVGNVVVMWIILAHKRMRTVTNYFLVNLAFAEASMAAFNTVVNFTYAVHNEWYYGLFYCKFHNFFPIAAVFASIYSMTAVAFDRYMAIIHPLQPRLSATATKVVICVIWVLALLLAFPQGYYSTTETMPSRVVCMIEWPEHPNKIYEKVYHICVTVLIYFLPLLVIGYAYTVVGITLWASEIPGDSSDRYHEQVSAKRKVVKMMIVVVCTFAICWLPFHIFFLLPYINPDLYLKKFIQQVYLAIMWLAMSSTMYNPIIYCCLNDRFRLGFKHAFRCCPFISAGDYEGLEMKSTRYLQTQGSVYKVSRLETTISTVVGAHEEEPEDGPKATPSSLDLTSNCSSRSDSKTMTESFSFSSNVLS

| Compound | inhibition at 20 µM | IC50 | further results |
| --- | --- | --- | --- |
| Clc1ccccc1-c1nc2ccccc2n1-c1ccccc1 [Example 22, 1-phenyl-2-(2-chlorophenyl)benzimidazole] | 65% | – | – |
| FC(F)(F)c1ccc(-c2nc3ccccc3n2-c2ccccc2)cc1 [Example 12, 1-phenyl-2(4-trifluoromethylphenyl)-benzimidazole] | – | 6.72 µM | – |
| COc1cc(OC)cc(-c2nc3ccccc3n2-c2ccccc2)c1 [Example 14, 1-phenyl-2-(3,5-dimethoxyphenyl)benzimidazole] | – | 1.54 µM | – |
| COc1cc(-c2nc3ccc(OCCN(C)C)cc3n2Cc2ccccc2)cc(OC)c1OC [Example 79, 1-benzyl-2-(3,4,5-trimethoxyphenyl)-6-[2-(N,N-dimethylamino)ethoxy]benzimidazole] | – | 0.097 µM | – |
| c1ccc(-n2c(-c3ccc4ccccc4c3)nc3ccccc32)cc1 [Example 13, 1-phenyl-2-(2-naphthyl)benzimidazole] | – | 6.91 µM | – |
| Cc1ccc(-c2nc3ccccc3n2-c2ccccc2)cc1 [Example 18, 1-phenyl-2-(4-methylphenyl)benzimidazole] | 37% | – | – |
| Clc1cccc(-c2nc3ccccc3n2-c2ccccc2)c1 [Example 4, 1-phenyl-2-(3-chlorophenyl)benzimidazole] | – | 7 µM | – |
| Oc1ccc(-c2nc3ccccc3n2-c2ccccc2)cc1 [Example 29, 1-phenyl-2-(4-hydroxyphenyl)benzimidazole] | 67% | – | – |
| O=[N+]([O-])c1cc(-c2nc3ccccc3n2-c2ccccc2)ccc1Cl [Example 30, 1-phenyl-2-(3-nitro-4-chlorophenyl)-benzimidazole] | 79% | – | – |
| c1ccc(-n2c(C3CCCCC3)nc3ccccc32)cc1 [Example 21, 1-phenyl-2-cyclohexylbenzimidazole] | 26% | – | – |
| Clc1ccc(-n2c(-c3ccccc3)nc3ccccc32)cc1 [Example 8, 1-(4-chlorophenyl)-2-phenylbenzimidazole] | 11% | – | – |
| c1ccc(-c2nc3ccccc3n2CCN2CCCCC2)cc1 [Example 28, 1-(piperidin-1-ylethyl)-2-phenylbenzimidazole dihydrochloride] | 16% | – | – |
| COc1ccc2nc(-c3cc(OC)c(OC)c(OC)c3)n(Cc3ccccc3)c2c1 [Example 39, 1-phenylmethyl-2-(3,4,5-trimethoxyphenyl)-6-methoxybenzimidazole] | – | 0.427 µM | – |
| COc1ccc(-c2nc3ccccc3n2-c2ccccc2)cc1OC [Example 15, 1-phenyl-2-(3,4-dimethoxyphenyl)benzimidazole] | – | 2.98 µM | – |
| CCCc1nc2ccccc2n1-c1ccccc1 [Example 32, 1-phenyl-2-propylbenzimidazole] | – | 10 µM | – |
| COc1ccccc1-c1nc2ccccc2n1-c1ccccc1 [Example 24, 1-phenyl-2-(2-methoxyphenyl)benzimidazole] | – | 8.67 µM | – |
| COc1cc(-c2nc3ccc(OCCN(C(C)C)C(C)C)cc3n2Cc2ccccc2)cc(OC)c1OC [Example 81, 1-benzyl-2-(3,4,5-trimethoxyphenyl)-6-[2-(N,N-diisopropylamino)ethoxy]benzimidazole] | – | 0.04 µM | – |
| COc1cc(-c2nc3ccc(OC(C)CN(C)C)cc3n2Cc2ccccc2)cc(OC)c1OC (centres unmarked) [Example 78] | – | 0.151 µM | – |
| FC(F)(F)c1ccccc1-c1nc2ccccc2n1-c1ccccc1 [Example 36, 1-phenyl-2-(2-trifluoromethylphenyl)-benzimidazole] | 43% | – | – |
| Cc1cccc(-c2nc3ccccc3n2Cc2cccc(O)c2)c1 [Example 67, 1-(3-hydroxybenzyl)-2-(3-methylphenyl)benzimidazole hydrobromide] | – | – | inhibition at 10 µM: 60% |
| FC(F)(F)c1cccc(-c2nc3ccccc3n2-c2ccccc2)c1 [Example 9, 1-phenyl-2-(3-trifluoromethylphenyl)-benzimidazole] | 15% | – | – |
| CCCCCc1nc2ccccc2n1-c1ccccc1 [Example 35, 1-phenyl-2-pentylbenzimidazole hydrochloride] | 51% | – | – |
| COc1cccc(-c2nc3ccccc3n2-c2ccccc2)c1 [Example 6, 1-phenyl-2-(3-methoxyphenyl)benzimidazole] | – | 3.29 µM | – |
| COc1cc(-c2nc3ccccc3n2-c2ccccc2)cc(OC)c1OC [Example 16, 1-phenyl-2-(3,4,5-trimethoxyphenyl)-benzimidazole] | – | 0.64 µM | – |

| Compound | inhibition at 20 µM | IC50 | further results |
| --- | --- | --- | --- |
| Clc1ccc(-c2nc3ccccc3n2-c2ccccc2)cc1Cl [Example 27, 1-phenyl-2-(3,4-dichlorophenyl)benzimidazole] | – | 6.61 µM | – |
| Cc1ccccc1-c1nc2ccccc2n1-c1ccccc1 [Example 23, 1-phenyl-2-(2-methylphenyl)benzimidazole] | 51% | – | – |
| COc1ccc(-c2nc3ccccc3n2-c2ccccc2)cc1 [Example 2, 1-phenyl-2-(4-methoxyphenyl)benzimidazole] | 38% | – | – |
| c1ccc(-n2c(-c3cccs3)nc3ccccc32)cc1 [Example 33, 1-phenyl-2-(thien-2-yl)benzimidazole] | – | 3.98 µM | – |
| COc1cc(-c2nc3ccc(OCCCN(C)C)cc3n2Cc2ccccc2)cc(OC)c1OC [Example 80, 1-benzyl-2-(3,4,5-trimethoxyphenyl)-6-[3-(N,N-dimethylamino)propoxy]benzimidazole] | – | 0.123 µM | – |
| Oc1cccc(-c2nc3ccccc3n2-c2ccccc2)c1 [Example 34, 1-phenyl-2-(3-hydroxyphenyl)benzimidazole] | – | 12 µM | – |
| CN(C)CCn1c(-c2ccccc2)nc2ccccc21 [Example 26, 1-dimethylaminoethyl-2-phenylbenzimidazole dihydrochloride] | 0% | – | – |
| COc1cc(-c2nc3ccc(OCCN4CCN(C)CC4)cc3n2Cc2ccccc2)cc(OC)c1OC [Example 83, 1-benzyl-2-(3,4,5-trimethoxyphenyl)-6-[2-(4-methyl-1-piperazinyl)ethoxy]benzimidazole] | – | 0.098 µM | – |
| O=[N+]([O-])c1ccc(-c2nc3ccccc3n2-c2ccccc2)cc1 [Example 7, 1-phenyl-2-(4-nitrophenyl)benzimidazole] | – | 9.12 µM | – |
| N#Cc1ccc(-c2nc3ccccc3n2-c2ccccc2)cc1 [Example 20, 1-phenyl-2-(4-cyanophenyl)benzimidazole] | – | 3.47 µM | – |
| Cc1cccc(-c2nc3ccccc3n2-c2ccccc2)c1 [Example 19, 1-phenyl-2-(3-methylphenyl)benzimidazole] | – | 1.1 µM | – |
| COc1ccc(Cn2c(-c3cccc(C)c3)nc3ccccc32)cc1 [Example 66, 1-(4-Methoxybenzyl)-2-(3-methylphenyl)benzimidazole] | – | – | inhibition at 10 µM: 34% |
| c1ccc(Cc2nc3ccccc3n2-c2ccccc2)cc1 [Example 3, 1-phenyl-2-phenylmethylbenzimidazole] | 30% | – | – |
| COc1ccc2c(c1)nc(-c1cc(OC)c(OC)c(OC)c1)n2Cc1ccccc1 [Example 38, 1-phenylmethyl-2-(3,4,5-trimethoxyphenyl)-5-methoxybenzimidazole] | – | 1.05 µM | – |
| N#Cc1cccc(-c2nc3ccccc3n2-c2ccccc2)c1 [Example 25, 1-phenyl-2-(3-cyanophenyl)benzimidazole] | – | 3.27 µM | – |
| COc1cccc(Cn2c(-c3cccc(C)c3)nc3ccccc32)c1 [Example 65, 1-(3-Methoxybenzyl)-2-(3-methylphenyl)benzimidazole] | – | – | inhibition at 10 µM: 58% |
| Clc1ccc(-c2nc3ccccc3n2-c2ccc(Cl)cc2)cc1 [Example 11, 1-(4-chlorophenyl)-2-(4-chlorophenyl)-benzimidazole] | 19% | – | – |
| Cc1cccc(-c2nc3ccccc3n2Cc2ccc(Cl)cc2Cl)c1 [Example 63, 1-(2,4-Dichlorobenzyl)-2-(3-methylphenyl)benzimidazole] | – | – | inhibition at 10 µM: 36% |
| COc1ccc(-c2nc3ccccc3n2-c2ccc(Cl)cc2)cc1 [Example 17, 1-(4-chlorophenyl)-2-(4-methoxyphenyl)benzimidazole] | 17% | – | – |
| COc1cc(-c2nc3ccc(O)cc3n2Cc2ccccc2)cc(OC)c1OC [Example 69, 1-benzyl-2-(3,4,5-trimethoxyphenyl)-6-(hydroxy)-benzimidazole hydrochloride] | – | 1.13 µM | – |
| O=[N+]([O-])c1cccc(-c2nc3ccccc3n2-c2ccccc2)c1 [Example 10, 1-phenyl-2-(3-nitrophenyl)benzimidazole] | – | 5 µM | – |
| Clc1ccc(-c2nc3ccccc3n2-c2ccccc2)cc1 [Example 5, 1-phenyl-2-(4-chlorophenyl)benzimidazole] | 38% | – | – |
| c1ccc(-c2nc3ccccc3n2-c2ccccc2)cc1 [Example 1, 1,2-diphenylbenzimidazole] | 25% | – | – |
